Data taken from patent US9334299B2, “Water-soluble camptothecin derivative, pharmaceutical composition and use thereof” (Hunan Fangshenghuamei Medical Tech. Co. Ltd., priority 2011, dated 2016).
“Also recorded” adds a separate entry of the source. Read-outs that look alike come from different tables or passages of the source.

How the values were obtained:
Format in all cases: cell-based
[1] = tested on: H146 (small cell lung cancer) cells; assay: CellTiter-Glo cell viability assay, H146 cells; conditions: for viability at 0.1 µM / viability at 1 µM / viability at 10 µM: Homo sapiens, read-out: H146 cell viability after 48 hours of treatment; for cell killing / dose-dependent cell death in H146 cells, result in words: compared with CPT, floxuridine, etoposide (FIGS. 4-5, Table 3)
Description: (§1) To determine the ability of Compound Dix-905 (also referred as Compound 905) to kill cancer cells, we performed a cell viability assay via CellTiter-Glo kit (Promega) using various cell lines. The kit measures the ATP levels via an enzymatic Luciferase assay. Viable cells, having normal metabolic rates and producing normal levels of ATP, will is have a high turnover of Luciferase substrates, which requires ATP for the enzymatic reaction and emits luminescent signals. By contrast, dying cells will have lower outcome of luminescent signals since their metabolic functions are diminished. The emitted luminescent signals will then be captured by a luminometer.
(§2) To perform the viability assay, small cell lung cancer cells (ATCC catalog No. H146), breast cancer cells (ATCC catalog No. MDAMB231) or colon cancer cells (ATCC catalog No. HCT116) were seeded in 96 wells and treated via Compound Dix-905 and other anti-cancer drugs for a time period of 24, 48, 72 hours. At each respective time point, cells were mixed with Cell Titer Glow reagents for 1 h and evaluated for luminescent signals.
In the “CPT” group, the H146 (small cell lung cancer) cells were treated with CPT (dissolved in DMSO) in 4 concentrations (0, 0.1, 1.0, 10 μM, respectively) for 48 hours; In the Dix-902, Dix-904 and Dix-906 groups, H146 (small cell lung cancer) cells were treated respectively with the corresponding compounds (dissolved in a saline solution) in 4 concentrations (0, 0.1, 1.0, 10 μM, respectively) for 48 hours.

[2] = tested on: MDAMB231 (breast cancer) cells; assay: CellTiter-Glo cell viability assay, MDAMB231 cells; conditions: Homo sapiens, read-out: MDAMB231 cell viability after 48 hours of treatment
Description: as §1, §2
In the “CPT” group, the MDAMB231 (breast cancer) cells were treated with CPT (dissolved in DMSO) in 4 concentrations (0, 0.1, 1.0, 10 μM, respectively) for 48 hours. In the Dix-902, Dix-904 and Dix-906 groups, MDAMB231 (breast cancer) cells were treated respectively with the corresponding compounds (dissolved in a saline solution) in 4 concentrations (0, 0.1, 1.0, 10 μM, respectively) for 48 hours.

[3] = tested on: HCT116 (colon cancer) cells; assay: CellTiter-Glo cell viability assay, HCT116 cells; conditions: for viability at 0.1 µM / viability at 1 µM / viability at 10 µM: Homo sapiens, HCT-116, 48 hours, read-out: HCT116 cell viability after 48 hours of treatment; for cell killing / dose-dependent cell death in HCT116 cells, result in words: compared with CPT, 5-FU, Etoposide (FIGS. 7-8, Table 5)
Description: as §1, §2
In the “CPT” group, the is HCT116 cells were treated with CPT (dissolved in DMSO) in 4 concentrations (0, 0.1, 1.0, 10 μM, respectively) for 48 hours. In the Dix-902, Dix-904 and Dix-906 groups, HCT116 cells were treated respectively with the corresponding compounds (dissolved in a saline solution) in 4 concentrations (0, 0.1, 1.0, 10 μM, respectively) for 48 hours.

[4] = tested on: H1693 cells; assay: Cell viability (cell killing) assay, H1693 cells; conditions: compared with CPT, floxuridine, etoposide (FIGS. 1-2)
[5] = tested on: Caspase 3/7 in H1693 cells; assay: Caspase-Glo 3/7 caspase activation assay, H1693 cells; conditions: FIG. 3
Description: (§3) For caspase activation, similar assays could be performed using the Caspase-Glo 3/7kit from Promega after cells were treated with respective agents for various time points. The mechanism of Caspase 3/7 Glow assay is by using Caspase 3/7 substrate fused with Luciferase substrate, which could be cleaved by activated Caspase 3/7. The released Luciferase substrate then undergoes an enzymatic reaction and emits luminescent signals. In contrast to the viability assay, the limiting step for this assay is caspase activation. Dying cells bearing the activated Casapses will have a high readout of luminescent signals in a luminometer.

[6] = tested on: Caspase 3/7 in H146 cells; assay: Caspase-Glo 3/7 caspase activation assay, H146 cells; conditions: FIG. 6
Description: as §3

Compound | viability at 0.1 µM ([1]; NCI-H146, 0.1 μM, 48 hours) [%] | viability at 1 µM ([1]; NCI-H146, 1.0 μM, 48 hours) [%] | viability at 10 µM ([1]; NCI-H146, 10 μM, 48 hours) [%] | cell killing / dose-dependent cell death in H146 cells, result in words [1] | viability at 0.1 µM ([2]; MDA-MB-231, 0.1 μM, 48 hours) [%] | viability at 1 µM ([2]; MDA-MB-231, 1.0 μM, 48 hours) [%] | viability at 10 µM ([2]; MDA-MB-231, 10 μM, 48 hours) [%] | viability at 0.1 µM [3] [%] | viability at 1 µM [3] [%] | viability at 10 µM [3] [%] | cell killing / dose-dependent cell death in HCT116 cells, result in words [3] | viability at 0.1 µM ([1]; NCI-H146, 48 h) [%] | viability at 1 µM ([1]; NCI-H146, 48 h) [%] | viability at 10 µM ([1]; NCI-H146, 48 h) [%] | viability at 0.1 µM ([2]; MDA-MB-231, 48 h) [%] | viability at 1 µM ([2]; MDA-MB-231, 48 h) [%] | viability at 10 µM ([2]; MDA-MB-231, 48 h) [%] | further results
CC[C@@]1(OP(=O)(O)OC[C@H]2O[C@@H](n3cc(C)c(=O)[nH]c3=O)C[C@@H]2O)C(=O)OCc2c1cc1n(c2=O)Cc2cc3ccccc3nc2-1 [Dix-906] | 64 | 45 | 21 | similarly to or even slightly better than that of CPT | 14 | 4 | 3 | 90 | 71 | 8 | higher than that CPT | – | – | – | – | – | – | –
CC[C@@]1(O)C(=O)OCc2c1cc1n(c2=O)Cc2cc3ccccc3nc2-1 [CPT, Camptothecin] | 65 | 51 | 24 | – | 13 | 5 | 3 | 96 | 76 | 11 | Dose-dependent cell death | – | – | – | – | – | – | –
CC[C@@]1(OP(=O)(O)OC[C@H]2O[C@@H](n3ccc(N)nc3=O)C[C@@H]2O)C(=O)OCc2c1cc1n(c2=O)Cc2cc3ccccc3nc2-1 [Dix-902] | – | – | – | similarly to or even slightly better than that of CPT | – | – | – | 87 | 68 | 9 | higher than that CPT | 66 | 43 | 20 | 15 | 4 | 2 | –
CC[C@@]1(OP(=O)(O)OC[C@H]2O[C@@H](n3cc(F)c(=O)[nH]c3=O)C[C@@H]2O)C(=O)OCc2c1cc1n(c2=O)Cc2cc3ccccc3nc2-1 [Dix-905] | – | – | – | cell killing response in H146 better than that of CPT; also recorded: more effective cell killing in H146 than that of CPT, floxuridine, and etoposide | – | – | – | – | – | – | Dose-dependent cell death | – | – | – | – | – | – | cell killing / dose-dependent cell death in HCT116 cells, result in words ([3]; listed as DIX-905): more effective in cell killing than that of CPT, 5-FU and Etoposide; cell killing in H1693 cells, result in words [4]: cell killing response better than that of CPT; also recorded: more effective cell killing in H1693 than that of CPT, floxuridine, and etoposide; cell death in H1693 via Caspase activation (apoptotic pathway) [5]: time- and dose-dependent cell death; cell death in H146 via Caspase activation (apoptotic pathway) [6]: time- and dose-dependent cell death
CC[C@@]1(OP(=O)(O)OC[C@H]2O[C@@H](n3cnc4c(N)ncnc43)C[C@@H]2O)C(=O)OCc2c1cc1n(c2=O)Cc2cc3ccccc3nc2-1 [Dix-904] | – | – | – | similarly to or even slightly better than that of CPT | – | – | – | 95 | 70 | 10 | higher than that CPT | 67 | 44 | 19 | 13 | 3 | 1 | –
